Assay results published in patent publication US20010049373A1, “Materials and methods for killing nematodes and nematode eggs” (priority 2000, published 2001).

Test system: Caenorhabditis elegans
Assay: C. elegans L1 larvae dose-response, 5 day visual viability score (Examples 2 and 7)
Assay type: in vivo
Set-up: key: Dead: only stiff L1s (no movement); Dead (L4): worms are dead, but at a later larval stage; majority of worms are L1 (based on size); majority of worms are L2 (based on size); majority of worms are L3 (based on size); majority of worms are L4 (based on size); AD: majority of worms are adult; #AD: 5 adult worms or less; B!: sterile (0-25 progeny); B: low broodsize (25-100 progeny); ˜B: moderate broodsize (100-250 progeny); <: reduced broodsize (250-500 progeny); OK: no effect (˜1000+ progeny)
Conditions: day 5, Table 3
In short: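 Twenty L1 larvae per well in NGM with E. coli HB101 were exposed to six 3-fold dilutions from 70 μM to 0.3 μM, 1.4% DMSO final, at 20° C. Day-5 viability was scored visually under a dissecting microscope by developmental stage, adult count and brood size.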

`CCC1CCCCN1c1cc(Oc2ccc3oc4ccccc4c3c2)ncn1` (stereo not drawn) [AKC 109] was tested, and the “5 Day Visual Score V6” value (0.3 μM (procedure of Example 2)) was “B (low broodsize (25-100 progeny))”, the “5 Day Visual Score V2” value (23.3 μM (procedure of Example 2)) was “L1” and the “5 Day Visual Score V1” value (70 μM (procedure of Example 2)) was “L1”.
